Test results: patent US8895004B2 (priority 2007, dated 2014)
“Also recorded” adds a separate entry of the source.

Legend:
[1] = system: cultured hippocampal neurons treated with ω-conotoxin (P/Q-dominated cells); format: cell-based, rat
N-type currents = N-type currents (Rattus norvegicus, UniProt Q02294); format: cell-based

| Compound | amplitude of spontaneous synaptic currents [1] | reversal of Aβ globulomer-induced reduction of frequency of spontaneous synaptic events [1] | N-type calcium current amplitude (N-type currents) | amplitude of synaptic events (mIPSCs) [1] | effect on amplitude of mIPSCs when P/Q channels are already blocked [1] | effect on synaptic activity / frequency of mIPSCs after blockade of P/Q channels by ω-agatoxin [1] | frequency of spontaneous synaptic events [1] |
| --- | --- | --- | --- | --- | --- | --- | --- |
| CC[C@H](CO)Nc1nc(NCc2ccccc2)c2ncn(C(C)C)c2n1 [roscovitine] | No effect | reversal | – | – | – | – | – |
| Aβ(1-42) globulomer: soluble, globular, non-covalent association of Aβ(1-42) peptides, apparent molecular weight 38/48 kDa, obtained as in Example 6b of WO2004/067561 | – | – | 1399.8±376.4 pA | no or little effect; also recorded: no effect | No effect | No additive effect; also recorded: no further effect | inhibits the frequency of spontaneous synaptic events |
